Reference: the NIST ThermoML archive (doi:10.1016/j.jct.2014.12.020)
Numbers after ± are expanded uncertainties.

Assay: wn = mass fraction of the nth substance listed
Settings: 100 kPa, Liquid; for viscosity: Concentric cylinders viscometry; for mass density: Vibrating tube method

C[C@H](O)C(=O)[O-].C[N+](C)(C)CCO + O
Settings | mass density [kg/m3] | viscosity [mPa·s]
293.15 K, w2 = 0.004 | 1140.9 ± 1.4 | 3661.3 ± 220
293.15 K, w2 = 0.011 | 1142 ± 1.4 | 2703 ± 150
293.15 K, w2 = 0.02 | 1142.3 ± 1.4 | 1543.3 ± 170
293.15 K, w2 = 0.029 | 1141.9 ± 1.4 | 1408.3 ± 66
293.15 K, w2 = 0.045 | 1140.9 ± 1.4 | 888 ± 37
293.15 K, w2 = 0.066 | 1139.9 ± 1.4 | 546.3 ± 20
293.15 K, w2 = 0.077 | 1139.3 ± 1.3 | 421.4 ± 14
293.15 K, w2 = 0.121 | 1137 ± 1.3 | 201.3 ± 5.7
293.15 K, w2 = 0.167 | 1135.4 ± 1.3 | 119.8 ± 2.9
293.15 K, w2 = 0.218 | 1131.4 ± 1.2 | 70.5 ± 1.6
293.15 K, w2 = 0.24 | 1127.4 ± 1.2 | 48 ± 1.1
298.15 K, w2 = 0.004 | 1137.8 ± 1.4 | 2310.1 ± 120
298.15 K, w2 = 0.011 | 1138.8 ± 1.4 | 1732.1 ± 85
298.15 K, w2 = 0.02 | 1139 ± 1.4 | 1021 ± 110
298.15 K, w2 = 0.029 | 1138.5 ± 1.4 | 936.5 ± 40
298.15 K, w2 = 0.045 | 1137.5 ± 1.4 | 604.3 ± 23
298.15 K, w2 = 0.066 | 1136.5 ± 1.4 | 380.6 ± 13
298.15 K, w2 = 0.077 | 1136 ± 1.3 | 297.1 ± 9.3
298.15 K, w2 = 0.121 | 1133.7 ± 1.3 | 146.7 ± 3.8
298.15 K, w2 = 0.167 | 1132.1 ± 1.3 | 89.1 ± 2.1
298.15 K, w2 = 0.218 | 1128.1 ± 1.2 | 53.6 ± 1.2
298.15 K, w2 = 0.24 | 1124.1 ± 1.2 | 37.1 ± 0.8
303.15 K, w2 = 0.004 | 1134.7 ± 1.4 | 1510.1 ± 72
303.15 K, w2 = 0.011 | 1135.6 ± 1.4 | 1150.1 ± 51
303.15 K, w2 = 0.02 | 1135.7 ± 1.4 | 697.5 ± 74
303.15 K, w2 = 0.029 | 1135.2 ± 1.4 | 642.3 ± 25
303.15 K, w2 = 0.045 | 1134.2 ± 1.4 | 423.6 ± 15
303.15 K, w2 = 0.066 | 1133.3 ± 1.4 | 272.7 ± 8.3
303.15 K, w2 = 0.077 | 1132.7 ± 1.3 | 215.2 ± 6.2
303.15 K, w2 = 0.121 | 1130.5 ± 1.3 | 109.4 ± 2.6
303.15 K, w2 = 0.167 | 1128.9 ± 1.3 | 67.8 ± 1.5
303.15 K, w2 = 0.218 | 1124.8 ± 1.2 | 41.6 ± 0.9
303.15 K, w2 = 0.24 | 1120.8 ± 1.2 | 29.2 ± 0.7
308.15 K, w2 = 0.004 | 1131.7 ± 1.4 | 1019.4 ± 44
308.15 K, w2 = 0.011 | 1132.4 ± 1.4 | 787.6 ± 32
308.15 K, w2 = 0.02 | 1132.4 ± 1.4 | 490.6 ± 51
308.15 K, w2 = 0.029 | 1131.8 ± 1.4 | 453.5 ± 16
308.15 K, w2 = 0.045 | 1130.9 ± 1.4 | 305 ± 9.6
308.15 K, w2 = 0.066 | 1130.1 ± 1.3 | 200.4 ± 5.6
308.15 K, w2 = 0.077 | 1129.6 ± 1.3 | 159.8 ± 4.2
308.15 K, w2 = 0.121 | 1127.3 ± 1.3 | 83.5 ± 1.9
308.15 K, w2 = 0.167 | 1125.8 ± 1.2 | 52.6 ± 1.2
308.15 K, w2 = 0.218 | 1121.6 ± 1.2 | 32.9 ± 0.7
308.15 K, w2 = 0.24 | 1117.6 ± 1.2 | 23.4 ± 0.5
313.15 K, w2 = 0.004 | 1128.6 ± 1.4 | 708.4 ± 28
313.15 K, w2 = 0.011 | 1129.1 ± 1.4 | 554.7 ± 21
313.15 K, w2 = 0.02 | 1129.2 ± 1.4 | 354.1 ± 37
313.15 K, w2 = 0.029 | 1128.6 ± 1.4 | 328.4 ± 11
313.15 K, w2 = 0.045 | 1127.8 ± 1.4 | 225 ± 6.5
313.15 K, w2 = 0.066 | 1126.9 ± 1.3 | 150.7 ± 3.9
313.15 K, w2 = 0.077 | 1126.4 ± 1.3 | 121.4 ± 3
313.15 K, w2 = 0.121 | 1124.2 ± 1.3 | 65 ± 1.4
313.15 K, w2 = 0.167 | 1122.6 ± 1.2 | 41.7 ± 0.9
313.15 K, w2 = 0.218 | 1118.5 ± 1.2 | 26.4 ± 0.6
313.15 K, w2 = 0.24 | 1114.5 ± 1.2 | 18.9 ± 0.4
318.15 K, w2 = 0.004 | 1125.4 ± 1.4 | 505.4 ± 18
318.15 K, w2 = 0.011 | 1125.9 ± 1.4 | 400.7 ± 14
318.15 K, w2 = 0.02 | 1126.1 ± 1.4 | 261.6 ± 27
318.15 K, w2 = 0.029 | 1125.5 ± 1.4 | 243.5 ± 7.2
318.15 K, w2 = 0.045 | 1124.7 ± 1.4 | 169.7 ± 4.6
318.15 K, w2 = 0.066 | 1123.8 ± 1.3 | 115.6 ± 2.8
318.15 K, w2 = 0.077 | 1123.3 ± 1.3 | 94 ± 2.2
318.15 K, w2 = 0.121 | 1121 ± 1.3 | 51.5 ± 1.1
318.15 K, w2 = 0.167 | 1119.5 ± 1.2 | 33.6 ± 0.7
318.15 K, w2 = 0.218 | 1115.2 ± 1.2 | 21.6 ± 0.5
318.15 K, w2 = 0.24 | 1111.2 ± 1.2 | 15.8 ± 0.4
323.15 K, w2 = 0.004 | 1122.3 ± 1.4 | 369.4 ± 12
323.15 K, w2 = 0.011 | 1122.7 ± 1.4 | 296.2 ± 9.3
323.15 K, w2 = 0.02 | 1123 ± 1.4 | 197.4 ± 20
323.15 K, w2 = 0.029 | 1122.4 ± 1.4 | 184.4 ± 5.1
323.15 K, w2 = 0.045 | 1121.6 ± 1.4 | 130.6 ± 3.3
323.15 K, w2 = 0.066 | 1120.8 ± 1.3 | 90.4 ± 2.1
323.15 K, w2 = 0.077 | 1120.2 ± 1.3 | 74.1 ± 1.7
323.15 K, w2 = 0.121 | 1118 ± 1.3 | 41.5 ± 0.9
323.15 K, w2 = 0.167 | 1116.3 ± 1.2 | 27.4 ± 0.6
323.15 K, w2 = 0.218 | 1112 ± 1.2 | 17.9 ± 0.4
323.15 K, w2 = 0.24 | 1108 ± 1.2 | 13.2 ± 0.3
328.15 K, w2 = 0.004 | 1119.2 ± 1.4 | 275.9 ± 8.5
328.15 K, w2 = 0.011 | 1119.8 ± 1.4 | 223.5 ± 6.5
328.15 K, w2 = 0.02 | 1120.1 ± 1.4 | 151.8 ± 15
328.15 K, w2 = 0.029 | 1119.4 ± 1.4 | 142.3 ± 3.7
328.15 K, w2 = 0.045 | 1118.6 ± 1.4 | 102.3 ± 2.5
328.15 K, w2 = 0.066 | 1117.7 ± 1.3 | 71.9 ± 1.6
328.15 K, w2 = 0.077 | 1117.1 ± 1.3 | 59.3 ± 1.3
328.15 K, w2 = 0.121 | 1114.9 ± 1.3 | 33.9 ± 0.8
328.15 K, w2 = 0.167 | 1113.2 ± 1.2 | 22.7 ± 0.5
328.15 K, w2 = 0.218 | 1108.8 ± 1.2 | 15 ± 0.3
328.15 K, w2 = 0.24 | 1104.8 ± 1.2 | 11.2 ± 0.3
333.15 K, w2 = 0.004 | 1116.3 ± 1.4 | 210.2 ± 6
333.15 K, w2 = 0.011 | 1116.8 ± 1.4 | 171.9 ± 4.7
333.15 K, w2 = 0.02 | 1117.1 ± 1.4 | 118.9 ± 12
333.15 K, w2 = 0.029 | 1116.5 ± 1.4 | 111.7 ± 2.7
333.15 K, w2 = 0.045 | 1115.6 ± 1.4 | 81.4 ± 1.9
333.15 K, w2 = 0.066 | 1114.7 ± 1.3 | 58 ± 1.3
333.15 K, w2 = 0.077 | 1114.1 ± 1.3 | 48.2 ± 1.1
333.15 K, w2 = 0.121 | 1111.8 ± 1.3 | 28.1 ± 0.6
333.15 K, w2 = 0.167 | 1110 ± 1.2 | 19 ± 0.4
333.15 K, w2 = 0.218 | 1105.6 ± 1.2 | 12.7 ± 0.3
333.15 K, w2 = 0.24 | 1101.5 ± 1.2 | 9.5 ± 0.2
338.15 K, w2 = 0.004 | 1113.3 ± 1.4 | 163.1 ± 4.4
338.15 K, w2 = 0.011 | 1114 ± 1.4 | 134.6 ± 3.4
338.15 K, w2 = 0.02 | 1114.2 ± 1.4 | 94.6 ± 9.5
338.15 K, w2 = 0.029 | 1113.6 ± 1.4 | 89 ± 2.1
338.15 K, w2 = 0.045 | 1112.6 ± 1.4 | 65.8 ± 1.5
338.15 K, w2 = 0.066 | 1111.8 ± 1.3 | 47.5 ± 1.1
338.15 K, w2 = 0.077 | 1111.2 ± 1.3 | 39.7 ± 0.9
338.15 K, w2 = 0.121 | 1108.6 ± 1.3 | 23.5 ± 0.5
338.15 K, w2 = 0.167 | 1106.8 ± 1.2 | 16.1 ± 0.4
338.15 K, w2 = 0.218 | 1102.4 ± 1.2 | 11 ± 0.2
338.15 K, w2 = 0.24 | 1098.3 ± 1.2 | 8.3 ± 0.2
343.15 K, w2 = 0.004 | 1110.2 ± 1.4 | 128.7 ± 3.3
343.15 K, w2 = 0.011 | 1111 ± 1.4 | 106.9 ± 2.6
343.15 K, w2 = 0.02 | 1111.3 ± 1.4 | 76.3 ± 7.7
343.15 K, w2 = 0.029 | 1110.7 ± 1.4 | 72 ± 1.6
343.15 K, w2 = 0.045 | 1109.8 ± 1.3 | 53.8 ± 1.2
343.15 K, w2 = 0.066 | 1108.8 ± 1.3 | 39.3 ± 0.9
343.15 K, w2 = 0.077 | 1108.1 ± 1.3 | 33.1 ± 0.7
343.15 K, w2 = 0.121 | 1105.5 ± 1.3 | 19.9 ± 0.4
343.15 K, w2 = 0.167 | 1103.7 ± 1.2 | 13.8 ± 0.3
343.15 K, w2 = 0.218 | 1099.2 ± 1.2 | 9.5 ± 0.2
343.15 K, w2 = 0.24 | 1095 ± 1.2 | 7.3 ± 0.2
